These results are taken from patent US20160122340A1, “HISTONE DEACETYLASE INHIBITORS BASED ON DERIVATIVES OF TRICYCLIC POLYHYDROACRIDINE AND ANALOGS POSSESSING FUSED SATURATED FIVE-AND-SEVEN-MEMBERED RINGS” (QUIMATRYX, S.L., priority 2013, published 2016).

For one data set, the target named is T1, Human HDAC2 (Homo sapiens, UniProt Q92769).
T1 construct: Full length with C-terminal His tag, MW=60 kDa; His (C); purchased BioMol SE-500; host or cells: baculovirus / Sf9 cells
Put plainly: In vitro HDAC2 inhibition, fluorogenic peptide substrate. The class given is biochemical. The note with it: read-out: IC50 (μM) HDAC-2. The protocol:
(§1) In Vitro Inhibitory Activity of Histone Deacetylase: Human Isoforms HDAC1, 2, 3, 4, 5, 6, 7, 8, 9, 10 and 11 and HeLa Cell Line Nuclear Extract (IC50 Data)
(§2) All HDAC assays were performed using acetylated AMC-labeled peptide substrate: • Substrate for isoforms HDAC1, 2, 3, 6, 10, 11 and HeLa nuclear extract assays: Acetylated fluorogenic peptide from p53 residues 379-382 (RHKKAc). • Substrate for isoforms HDAC 4, 5, 7, 9: Fluorogenic Boc-L-Lys(ε-trifluoroacetyl)-AMC. • Substrate for HDAC8 assays: Acetylated fluorogenic peptide from p53 residues 379-382 (RHKAcKAc).
(§3) 50 μM of substrate peptide (see ‘substrate peptides’ section above) and an optimal concentration of the corresponding enzyme (see ‘enzymes’ section above) in the assay buffer and 1% final concentration of DMSO were incubated in the presence of gradient concentrations of inhibitors (10-dose IC50 mode with 3-fold serial dilution) at 30° C. for 2 h. The reactions were carried out in a 96-well microplate for fluorometry in a 50 μl reaction volume. After the deacetylation reaction, Fluor-de-Lys-Developer (BioMol Cat. # KI-105) was added to each well to digest the deacetylated substrate, thus producing the fluorescent signal. The reaction was allowed to develop for 45 minutes at 30° C. with 5% CO2; then the fluorescent signal was measured with an excitation wavelength at 360 nm and an emission wavelength at 460 nm in a microplate-reading fluorometer (GeminiXS; Molecular Devices, Sunnyvale, Calif.). A curve of Deacetylated Standard (Biomol, Cat. # KI-142; made from 100 μM with 1:2 dilution and 10-doses, 6 μl) allowed the conversion of fluorescent signal into micromoles of deacetylated product. All experiments were performed in triplicate. IC50 was calculated by fitting the experimental data to a dose-response curve. DMSO was used as negative control; Trichostatin A (Biomol Cat. # GR-309) was used as positive control inhibitor.

For the next data set, the target named is T2, Human HDAC6 (Homo sapiens, UniProt Q9UBN7).
T2 construct: Full length with N-terminal GST tag, MW=159 kDa; GST (N); purchased BioMol SE-508; host or cells: baculovirus / Sf9 cells
T2 sequence (Q9UBN7 1-1215): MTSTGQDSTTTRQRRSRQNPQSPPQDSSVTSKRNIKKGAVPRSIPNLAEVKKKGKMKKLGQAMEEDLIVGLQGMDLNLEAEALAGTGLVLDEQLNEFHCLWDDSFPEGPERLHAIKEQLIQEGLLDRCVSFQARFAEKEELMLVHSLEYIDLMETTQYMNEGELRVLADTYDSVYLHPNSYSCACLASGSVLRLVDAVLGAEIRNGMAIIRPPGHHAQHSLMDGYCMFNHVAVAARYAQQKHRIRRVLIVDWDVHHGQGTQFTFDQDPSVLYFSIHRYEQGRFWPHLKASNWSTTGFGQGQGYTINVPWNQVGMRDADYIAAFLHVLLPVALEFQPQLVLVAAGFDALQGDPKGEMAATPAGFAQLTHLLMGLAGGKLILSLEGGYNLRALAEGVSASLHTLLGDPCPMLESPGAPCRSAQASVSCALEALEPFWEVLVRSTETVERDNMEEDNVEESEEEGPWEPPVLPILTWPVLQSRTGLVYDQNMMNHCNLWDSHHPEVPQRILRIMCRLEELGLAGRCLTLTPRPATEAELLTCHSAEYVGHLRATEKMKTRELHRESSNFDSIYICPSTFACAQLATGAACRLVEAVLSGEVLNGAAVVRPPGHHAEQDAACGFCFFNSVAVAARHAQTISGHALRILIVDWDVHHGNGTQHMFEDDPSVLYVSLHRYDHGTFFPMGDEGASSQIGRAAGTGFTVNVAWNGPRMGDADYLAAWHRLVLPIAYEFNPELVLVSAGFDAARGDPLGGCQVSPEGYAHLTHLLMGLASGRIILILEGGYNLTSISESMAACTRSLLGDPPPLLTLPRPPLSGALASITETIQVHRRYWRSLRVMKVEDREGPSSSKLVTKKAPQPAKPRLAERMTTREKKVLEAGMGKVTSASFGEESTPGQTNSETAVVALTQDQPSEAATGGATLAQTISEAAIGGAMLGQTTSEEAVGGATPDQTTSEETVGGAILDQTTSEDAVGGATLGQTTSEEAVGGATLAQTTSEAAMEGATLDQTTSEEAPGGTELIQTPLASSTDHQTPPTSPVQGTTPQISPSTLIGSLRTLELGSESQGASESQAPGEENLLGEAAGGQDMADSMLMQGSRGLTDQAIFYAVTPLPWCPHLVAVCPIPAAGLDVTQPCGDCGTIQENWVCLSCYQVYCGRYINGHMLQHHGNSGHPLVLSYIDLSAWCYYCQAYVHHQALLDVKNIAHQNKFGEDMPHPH
The data set can be described thus: In vitro HDAC6 inhibition, fluorogenic peptide substrate. The class given is biochemical. The note with it: read-out: IC50 (μM) HDAC-6. The protocol:
as §1, §2, §3

In a further data set the target is T3, Human HDAC10 (Homo sapiens, UniProt Q969S8).
T3 construct: Amino acids 1-631 with Nterminal GST tag, MW=96 kDa; GST (N); purchased BioMol SE-559; host or cells: baculovirus / Sf9 cells
T3 sequence (Q969S8 1-631): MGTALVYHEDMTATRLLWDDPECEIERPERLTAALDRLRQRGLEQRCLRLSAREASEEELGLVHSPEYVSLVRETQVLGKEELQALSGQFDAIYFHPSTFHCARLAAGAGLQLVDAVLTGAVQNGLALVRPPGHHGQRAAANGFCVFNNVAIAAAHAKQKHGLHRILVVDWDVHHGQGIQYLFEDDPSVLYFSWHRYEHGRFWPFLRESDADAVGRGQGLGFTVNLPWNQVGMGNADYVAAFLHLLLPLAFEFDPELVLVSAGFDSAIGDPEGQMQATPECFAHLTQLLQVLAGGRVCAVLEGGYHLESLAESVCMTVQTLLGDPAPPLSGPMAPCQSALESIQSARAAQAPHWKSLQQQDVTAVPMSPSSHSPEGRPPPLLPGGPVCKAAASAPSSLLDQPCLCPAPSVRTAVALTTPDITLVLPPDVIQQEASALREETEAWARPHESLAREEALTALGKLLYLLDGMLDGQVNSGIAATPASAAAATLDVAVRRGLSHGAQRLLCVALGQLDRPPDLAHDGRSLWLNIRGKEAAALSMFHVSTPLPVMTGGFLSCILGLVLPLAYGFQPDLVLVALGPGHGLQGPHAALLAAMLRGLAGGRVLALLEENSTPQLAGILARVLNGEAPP
The data set can be described thus: In vitro HDAC10 inhibition, fluorogenic peptide substrate. The class given is biochemical. To be noted: read-out: IC50 (μM) HDAC-10. The protocol: as §1, §2, §3

T1 sequence (Q92769 whole entry): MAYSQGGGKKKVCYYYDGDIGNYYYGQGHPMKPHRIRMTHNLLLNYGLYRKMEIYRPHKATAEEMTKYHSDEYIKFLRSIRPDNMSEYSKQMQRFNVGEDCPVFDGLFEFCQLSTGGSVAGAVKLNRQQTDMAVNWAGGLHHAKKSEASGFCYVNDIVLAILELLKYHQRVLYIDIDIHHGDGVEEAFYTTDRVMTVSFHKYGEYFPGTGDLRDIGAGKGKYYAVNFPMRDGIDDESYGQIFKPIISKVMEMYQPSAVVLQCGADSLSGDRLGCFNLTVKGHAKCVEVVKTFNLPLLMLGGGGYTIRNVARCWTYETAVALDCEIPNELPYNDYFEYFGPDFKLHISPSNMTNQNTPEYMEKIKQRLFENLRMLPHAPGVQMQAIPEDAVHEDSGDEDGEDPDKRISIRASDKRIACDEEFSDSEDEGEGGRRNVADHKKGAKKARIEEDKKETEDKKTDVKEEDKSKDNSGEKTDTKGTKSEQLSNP

In turn, `O=C(CCCCCNC(=O)c1c2c(nc3ccccc13)CCCC2)NO` [Example 10, N-[6-(hydroxyamino)-6-oxohexyl]-1,2,3,4-tetrahydroacridine-9-carboxamide] showed a melting point of 187 to 188 °C. Also, the 50% inhibitory concentration (IC50) at Human HDAC2 was greater than 5 µM. For the same compound, on Human HDAC6, the IC50 amounted to 0.33 µM. For the same compound, the 50% inhibitory concentration (IC50) at Human HDAC10 is greater than 5 µM.

On to `O=C(CCCCCCNc1c2c(nc3cnccc13)CCCC2)NO` [Example 8, N-hydroxy-7-[(6,7,8,9-tetrahydrobenzo[b][1,7]naphthyridin-5-yl)amino]heptanamide], for which the melting point amounted to 56.7 °C. The IC50 at Human HDAC2 is 2.41 µM. The IC50 at Human HDAC6 came out at 0.033 µM. Moreover, the IC50 on Human HDAC10 is 2.02 µM.

In turn, `O=C(CCCCCCNc1c2c(nc3ncccc13)CCCC2)NO` [Example 7, N-hydroxy-7-[(6,7,8,9-tetrahydrobenzo[b][1,8]naphthyridin-5-yl)amino]heptanamide] yielded a melting point of 234 to 235 °C. At Human HDAC2, the half-inhibitory concentration (IC50) was determined as 4.46 µM. On Human HDAC6, the IC50 turned out to be 0.038 µM. The IC50 on Human HDAC10 is 4.02 µM.

For `O=C(CCCCCNc1c2c(nc3ccccc13)CCCC2)NO` [Example 1, N-hydroxy-6-[(1,2,3,4-tetrahydroacridin-9-yl)amino]hexanamide], the melting point fell in the range of 162 to 164 °C. Further, at Human HDAC2, the half-maximal inhibitory concentration (IC50) came out at 6.09 µM. For the same compound, at Human HDAC6, the 50% inhibitory concentration (IC50) was determined as 0.036 µM. For the same compound, at Human HDAC10, the half-maximal inhibitory concentration (IC50) turned out to be 5.76 µM.

Compound `O=C(CCCCCCNC(=O)c1c2c(nc3ccccc13)CCCC2)NO` [Example 11, N-[7-(hydroxyamino)-7-oxoheptyl]-1,2,3,4-tetrahydroacridine-9-carboxamide] registered a melting point of 185 to 186 °C. The IC50 at Human HDAC2 worked out at 8.48 µM. Besides, on Human HDAC6, the IC50 was 0.19 µM. In addition, at Human HDAC10, the IC50 was 6.89 µM.

As to `COc1cccc2c(NCCCCCCC(=O)NO)c3c(nc12)CCCC3` [Example 5, N-hydroxy-7-[(5-methoxy-1,2,3,4-tetrahydroacridin-9-yl)amino]heptanamide], the melting point came to 361 °C. Further, the half-inhibitory concentration (IC50) on Human HDAC2 was 1.84 µM. Also, the IC50 on Human HDAC6 is 0.015 µM. Besides, the concentration for half-maximal inhibition (IC50) on Human HDAC10 was 1.46 µM.

Compound `O=C(CCCCCCNc1c2c(nc3ccccc13)CCC2)NO` [Example 3, 7-[(2,3-dihydro-1H-cyclopenta[b]quinolin-9-yl)amino]-N-hydroxyheptanamide] showed a melting point of 165 to 166 °C. Moreover, the half-maximal inhibitory concentration (IC50) at Human HDAC2 stood at 0.77 µM. For the same compound, the concentration for half-maximal inhibition (IC50) at Human HDAC10 came out at 0.51 µM.

In turn, `O=C(CCCCCCNc1c2c(nc3ccccc13)CCCCC2)NO` [Example 4, N-hydroxy-7-[(7,8,9,10-tetrahydro-6H-cyclohepta[b]quinolin-11-yl)amino]heptanamide] displayed a melting point of 155 to 156 °C. The 50% inhibitory concentration (IC50) at Human HDAC2 was found to be 1.92 µM. On Human HDAC6, the 50% inhibitory concentration (IC50) worked out at 0.015 µM. Moreover, the IC50 at Human HDAC10 is 1.13 µM.

`O=C(CCCCCCNc1c2c(nc3ccccc13)CCCC2)NO` [Example 2, N-hydroxy-7-[(1,2,3,4-tetrahydroacridin-9-yl)amino]heptanamide] gave a melting point of 156 to 157 °C. For the same compound, the IC50 on Human HDAC2 turned out to be 0.75 µM. In addition, the IC50 on Human HDAC6 was 0.01 µM. On Human HDAC10, the half-inhibitory concentration (IC50) amounted to 0.71 µM.

Broadly, the IC50 is the concentration that gives 50% inhibition. A word on the melting point: it is the temperature of the solid-liquid transition.
